The source of these data is US10414808B2 (priority 2012, dated 2019).

Like-named read-outs stand apart in the source and are kept apart here.

Series [1] concerns the target Nav1.7 (Homo sapiens, UniProt Q15858, W1161R). The series can be described thus: cell-based.
The target in series [2] is Nav1.2 (Homo sapiens, UniProt Q99250). The series can be described thus: cell-based.
Series [3] deals with hNav1.7 channel (Homo sapiens, UniProt Q15858, W1161R). The series is classed as cell-based.
Series [4] relates to mouse model of inflammatory pain (100% CFA). To be noted: in vivo.
For series [5], the system named is rat model of nociceptive pain. To be noted: in vivo.
For series [6], the system named is rat model of monoarthritis induced by 50% intraplantar CFA. To be noted: in vivo.
The subject of series [7] is mouse spared nerve injury model of neuropathic pain. The note with it: in vivo.
For series [8] the following is noted: mouse, in vivo.
Series [9] relates to mice. The note with it: mouse, in vivo.
Series [10] relates to mouse model of CFA-induced inflammatory pain. The note with it: in vivo.
In series [11] the test system is rodent models of acute and inflammatory pain. To be noted: in vivo; cited from earlier work.
Series [12] is described as follows: in vivo. The note with it: mouse, sc.

Sequence of Nav1.7 (Q15858 whole entry W1161R, looked up): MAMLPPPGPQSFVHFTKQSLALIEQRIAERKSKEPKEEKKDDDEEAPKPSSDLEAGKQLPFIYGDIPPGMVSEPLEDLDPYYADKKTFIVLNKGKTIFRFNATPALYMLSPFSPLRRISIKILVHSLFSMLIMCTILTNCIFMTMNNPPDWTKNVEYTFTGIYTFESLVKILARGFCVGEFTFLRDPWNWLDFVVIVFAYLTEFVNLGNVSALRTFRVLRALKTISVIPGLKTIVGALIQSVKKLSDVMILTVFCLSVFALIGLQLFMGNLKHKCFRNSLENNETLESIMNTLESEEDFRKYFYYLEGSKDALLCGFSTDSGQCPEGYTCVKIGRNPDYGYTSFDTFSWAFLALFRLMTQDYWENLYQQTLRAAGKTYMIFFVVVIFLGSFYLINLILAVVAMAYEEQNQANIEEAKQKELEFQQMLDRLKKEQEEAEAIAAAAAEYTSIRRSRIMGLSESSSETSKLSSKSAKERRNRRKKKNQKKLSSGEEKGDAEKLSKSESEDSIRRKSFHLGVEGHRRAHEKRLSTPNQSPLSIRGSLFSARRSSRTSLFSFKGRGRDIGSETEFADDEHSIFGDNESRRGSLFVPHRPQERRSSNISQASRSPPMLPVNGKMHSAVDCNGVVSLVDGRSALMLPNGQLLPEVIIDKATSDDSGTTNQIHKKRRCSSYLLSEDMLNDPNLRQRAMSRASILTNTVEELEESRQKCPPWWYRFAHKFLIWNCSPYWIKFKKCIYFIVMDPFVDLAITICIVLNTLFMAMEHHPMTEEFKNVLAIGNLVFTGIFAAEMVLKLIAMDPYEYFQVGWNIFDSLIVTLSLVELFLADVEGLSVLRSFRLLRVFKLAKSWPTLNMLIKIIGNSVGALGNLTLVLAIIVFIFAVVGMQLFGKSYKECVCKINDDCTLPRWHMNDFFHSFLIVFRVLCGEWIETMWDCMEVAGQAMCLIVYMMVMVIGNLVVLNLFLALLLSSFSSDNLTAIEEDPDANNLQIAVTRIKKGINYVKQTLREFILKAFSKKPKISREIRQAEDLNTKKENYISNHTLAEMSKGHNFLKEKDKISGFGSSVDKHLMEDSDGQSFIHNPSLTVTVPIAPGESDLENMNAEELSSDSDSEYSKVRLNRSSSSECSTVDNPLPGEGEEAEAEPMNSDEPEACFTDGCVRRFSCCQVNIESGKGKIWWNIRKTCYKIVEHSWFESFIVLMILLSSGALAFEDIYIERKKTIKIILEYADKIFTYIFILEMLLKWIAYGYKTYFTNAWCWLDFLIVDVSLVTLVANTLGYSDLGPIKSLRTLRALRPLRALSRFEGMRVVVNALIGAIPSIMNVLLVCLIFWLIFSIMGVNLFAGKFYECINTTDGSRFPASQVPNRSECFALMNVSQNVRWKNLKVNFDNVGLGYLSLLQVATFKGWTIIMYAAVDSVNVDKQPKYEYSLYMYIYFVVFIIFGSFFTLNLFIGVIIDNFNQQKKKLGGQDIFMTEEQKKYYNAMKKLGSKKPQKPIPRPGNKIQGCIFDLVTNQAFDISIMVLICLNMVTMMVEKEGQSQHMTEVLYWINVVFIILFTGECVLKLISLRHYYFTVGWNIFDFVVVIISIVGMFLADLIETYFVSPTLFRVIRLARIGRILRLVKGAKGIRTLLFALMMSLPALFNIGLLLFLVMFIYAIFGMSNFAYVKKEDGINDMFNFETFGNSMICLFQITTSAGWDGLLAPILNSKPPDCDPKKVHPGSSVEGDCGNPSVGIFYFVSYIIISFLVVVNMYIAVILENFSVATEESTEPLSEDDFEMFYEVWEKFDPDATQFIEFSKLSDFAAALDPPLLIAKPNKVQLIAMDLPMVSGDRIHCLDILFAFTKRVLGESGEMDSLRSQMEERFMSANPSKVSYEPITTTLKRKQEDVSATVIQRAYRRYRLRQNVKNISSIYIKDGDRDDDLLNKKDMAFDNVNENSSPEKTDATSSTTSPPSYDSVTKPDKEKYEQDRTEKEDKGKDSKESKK
Sequence of Nav1.2 (Q99250 whole entry, looked up): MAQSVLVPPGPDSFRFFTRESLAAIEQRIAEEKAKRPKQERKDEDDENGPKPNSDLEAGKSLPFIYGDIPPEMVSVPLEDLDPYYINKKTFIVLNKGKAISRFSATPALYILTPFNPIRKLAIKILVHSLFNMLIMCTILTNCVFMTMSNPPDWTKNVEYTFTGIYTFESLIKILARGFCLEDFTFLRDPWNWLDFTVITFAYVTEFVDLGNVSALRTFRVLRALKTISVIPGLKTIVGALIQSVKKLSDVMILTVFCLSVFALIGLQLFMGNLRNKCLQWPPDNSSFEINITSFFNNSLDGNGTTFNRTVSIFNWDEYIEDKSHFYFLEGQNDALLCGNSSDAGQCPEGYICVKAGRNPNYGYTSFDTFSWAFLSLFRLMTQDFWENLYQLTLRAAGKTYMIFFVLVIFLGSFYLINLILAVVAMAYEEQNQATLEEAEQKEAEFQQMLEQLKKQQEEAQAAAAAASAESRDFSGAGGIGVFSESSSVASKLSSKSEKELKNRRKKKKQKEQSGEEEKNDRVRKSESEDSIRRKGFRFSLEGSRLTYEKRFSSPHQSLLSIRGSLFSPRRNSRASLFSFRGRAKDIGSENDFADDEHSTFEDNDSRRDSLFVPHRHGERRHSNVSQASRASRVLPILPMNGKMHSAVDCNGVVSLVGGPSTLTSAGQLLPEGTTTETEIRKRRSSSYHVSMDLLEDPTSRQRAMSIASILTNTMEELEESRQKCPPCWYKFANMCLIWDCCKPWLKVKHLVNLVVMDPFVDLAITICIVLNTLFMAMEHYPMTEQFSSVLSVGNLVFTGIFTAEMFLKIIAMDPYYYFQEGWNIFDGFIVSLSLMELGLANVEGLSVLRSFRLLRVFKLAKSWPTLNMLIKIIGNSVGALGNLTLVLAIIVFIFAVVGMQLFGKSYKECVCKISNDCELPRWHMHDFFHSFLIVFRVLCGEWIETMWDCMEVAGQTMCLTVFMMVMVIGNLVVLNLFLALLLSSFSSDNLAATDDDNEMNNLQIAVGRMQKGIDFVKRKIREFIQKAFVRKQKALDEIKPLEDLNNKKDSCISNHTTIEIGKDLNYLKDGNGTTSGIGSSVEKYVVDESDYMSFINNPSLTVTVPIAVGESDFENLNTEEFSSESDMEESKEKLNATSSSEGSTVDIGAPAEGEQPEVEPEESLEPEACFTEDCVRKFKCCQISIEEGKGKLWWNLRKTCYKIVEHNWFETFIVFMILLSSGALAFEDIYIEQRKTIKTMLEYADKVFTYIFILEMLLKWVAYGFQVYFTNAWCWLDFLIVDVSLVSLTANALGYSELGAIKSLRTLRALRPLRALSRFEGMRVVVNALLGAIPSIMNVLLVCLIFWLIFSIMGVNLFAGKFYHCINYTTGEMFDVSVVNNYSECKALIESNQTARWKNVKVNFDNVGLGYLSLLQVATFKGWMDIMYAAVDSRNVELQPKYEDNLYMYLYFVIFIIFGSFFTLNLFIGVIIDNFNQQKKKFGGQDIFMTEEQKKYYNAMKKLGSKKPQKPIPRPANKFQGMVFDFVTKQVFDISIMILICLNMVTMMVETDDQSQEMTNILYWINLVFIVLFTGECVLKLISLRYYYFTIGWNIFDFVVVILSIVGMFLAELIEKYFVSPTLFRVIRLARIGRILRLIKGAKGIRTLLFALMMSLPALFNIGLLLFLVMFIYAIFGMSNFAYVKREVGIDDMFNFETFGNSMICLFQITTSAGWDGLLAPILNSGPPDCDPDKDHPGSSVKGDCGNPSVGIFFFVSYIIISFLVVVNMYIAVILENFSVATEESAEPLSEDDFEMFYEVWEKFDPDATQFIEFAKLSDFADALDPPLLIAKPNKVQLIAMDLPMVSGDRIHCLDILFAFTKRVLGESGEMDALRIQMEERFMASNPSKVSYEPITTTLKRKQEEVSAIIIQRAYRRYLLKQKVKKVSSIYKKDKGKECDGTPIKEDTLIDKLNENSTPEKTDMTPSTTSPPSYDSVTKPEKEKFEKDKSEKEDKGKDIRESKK

Usually IC50 stands for the concentration needed to halve the response being measured. Low values mean greater potency in that assay, high ones weaker potency in that assay. As for `CC[C@H](C)[C@H](NC(=O)[C@H](CCC(N)=O)NC(=O)[C@H](Cc1ccc(O)cc1)NC(=O)[C@H](CCCCN)NC(=O)[C@@H]1CSSC[C@@H]2NC(=O)[C@H](CCC(N)=O)NC(=O)[C@H](CC(=O)O)NC(=O)[C@H](CC(N)=O)NC(=O)[C@H](CO)NC(=O)[C@@H]3CCCN3C(=O)[C@H](CC(N)=O)NC(=O)[C@@H]3CSSC[C@H](NC(=O)[C@H](C(C)C)NC(=O)[C@H](CC(C)C)NC(=O)[C@H](CCCCN)NC(=O)[C@H](CO)NC(=O)[C@H](CO)NC(=O)[C@H](CCCCN)NC(=O)[C@H](CSSC[C@H](NC(=O)[C@H](C)NC(=O)[C@@H]4CCCN4C(=O)CN)C(=O)N[C@@H](CC(C)C)C(=O)N[C@@H](CCC(=O)O)C(=O)N[C@@H]([C@@H](C)CC)C(=O)N[C@@H](Cc4ccccc4)C(=O)N[C@@H](CCCCN)C(=O)N[C@@H](C)C(=O)N3)NC2=O)C(=O)N[C@@H](CO)C(=O)N[C@@H](CCCNC(=N)N)C(=O)N[C@@H](CCCCN)C(=O)N[C@@H]([C@@H](C)O)C(=O)N[C@@H](CCCNC(=N)N)C(=O)N[C@@H](Cc2c[nH]c3ccccc23)C(=O)N1)C(=O)NCC(=O)N[C@@H](CCCCN)C(=O)O` [NV1D82 | 243], the IC50 was 40 nM in series [1] and 50 nM in series [2].
Turning to `CC[C@H](C)[C@H](NC(=O)[C@H](CCC(N)=O)NC(=O)[C@H](Cc1ccc(O)cc1)NC(=O)[C@H](CCCCN)NC(=O)[C@@H]1CSSC[C@@H]2NC(=O)[C@H](CCC(N)=O)NC(=O)[C@H](CC(=O)O)NC(=O)[C@H](CC(N)=O)NC(=O)[C@H](CO)NC(=O)[C@@H]3CCCN3C(=O)[C@H](CC(N)=O)NC(=O)[C@@H]3CSSC[C@H](NC(=O)[C@H](C(C)C)NC(=O)[C@H](CC(C)C)NC(=O)[C@H](CCCCN)NC(=O)[C@H](CO)NC(=O)[C@H](CO)NC(=O)[C@H](CCCCN)NC(=O)[C@H](CSSC[C@H](NC(=O)[C@H](CCC(=O)O)NC(=O)[C@@H]4CCCN4C(=O)CN)C(=O)N[C@@H](CC(C)C)C(=O)N[C@@H](CCC(=O)O)C(=O)N[C@@H]([C@@H](C)CC)C(=O)N[C@@H](Cc4ccccc4)C(=O)N[C@@H](CCCCN)C(=O)N[C@@H](C)C(=O)N3)NC2=O)C(=O)N[C@@H](CO)C(=O)N[C@@H](CCCNC(=N)N)C(=O)N[C@@H](CCCCN)C(=O)N[C@@H]([C@@H](C)O)C(=O)N[C@@H](CCCNC(=N)N)C(=O)N[C@@H](Cc2c[nH]c3ccccc23)C(=O)N1)C(=O)NCC(=O)N[C@@H](CCCCN)C(=O)O` [Recombinant Huwentoxin-IV], the “ratio of IC50 for Nav1.2 to IC50 for Nav1.7” value in series [3] is listed as “about 2.143”.
As for `NCC1(CC(=O)O)CCCCC1` [gabapentin], in series [4] (po, 150 mg/kg), the CFA-induced tactile allodynia result is listed as “reduced tactile allodynia albeit to a lesser extent than ProTx-II”.
As to `CSCC[C@@H]1NC(=O)CNC(=O)[C@H](CCC(=O)O)NC(=O)[C@@H]2CSSC[C@H](NC(=O)[C@@H](N)Cc3ccc(O)cc3)C(=O)N[C@@H](CCC(N)=O)C(=O)N[C@@H](CCCCN)C(=O)N[C@@H](Cc3c[nH]c4ccccc34)C(=O)N[C@@H](CCSC)C(=O)N[C@@H](Cc3c[nH]c4ccccc34)C(=O)N[C@@H]([C@@H](C)O)C(=O)N[C@H]3CSSC[C@H](NC(=O)[C@H](C(C)C)NC1=O)C(=O)N[C@@H](CCCNC(=N)N)C(=O)N[C@@H](CC(C)C)C(=O)N[C@@H](Cc1c[nH]c4ccccc14)C(=O)N[C@H](C(=O)N[C@@H](CCCCN)C(=O)N[C@@H](CCCCN)C(=O)N[C@@H](CCCCN)C(=O)N[C@@H](CC(C)C)C(=O)N[C@@H](Cc1c[nH]c4ccccc14)C(=O)O)CSSC[C@H](NC(=O)[C@H](CCCCN)NC(=O)[C@H](CCCNC(=N)N)NC(=O)[C@H](CCC(=O)O)NC(=O)[C@H](CO)NC(=O)[C@H](CC(=O)O)NC3=O)C(=O)N2` [ProTx-II], the “AUC of gram thresholds (mean vehicle AUC subtracted), comparison between dose groups” value in series [5] was “significantly different except between the 0.3 and 3 nmole doses”. In series [5] (sc), the “paw pressure threshold vs vehicle-treated animals” value is reported as “increased thresholds significantly” and the “paw pressure threshold, dose dependence” value is reported as “dose-dependent increase”. Further, the “tactile threshold vs vehicle injected animals” value in [6] is reported as “significantly increased”. In addition, the CFA-induced tactile allodynia entry in series [4] was “profound anti-allodynic effect”. In addition, in series [7], the “efficacy in tactile (Von Frey) pain assay” value is reported as “not efficacious”. For the same molecule, in series [8], the “Est Cp” value is “BLOQ”. Further, in [9], the “Behav Obs” value is “normal” and the tolerability result is reported as “well tolerated”. In [10], the motor impairment entry is on record as “did not produce any obvious motor impairment”, the tactile threshold result was “significantly increased” and the thermal threshold entry is reported as “significantly increased”. Moreover, the “efficacy in rodent models of acute and inflammatory pain” value in series [11] is “non-efficacious”. Besides, in series [12] (45.6 ug/day), the level at time molar at 48 h worked out at 50 nM, the level at time molar at 120 h is 55 nM and the level at time molar at 168 h came to 83 nM. In series [12] (228 ug/day), this molecule gave a level at time molar at 72 h of 224 nM.
